Measured values as given in patent US11096980B2, “Method of using glycyrrhiza plant-based preparation to reduce toxic effect of polypeptide fungitoxin” (priority 2016, dated 2021).

Tested on: IPEC-J2 cells
Experiment: TEER cell culture assay: protective effect against polypeptide fungitoxins
Type: cell-based, porcine
Conditions: for TEER value after addition of toxin (negative control): toxin 0.2-10 μM added on day 8
Method: In order to test the correlations of polypeptide fungitoxins on epithelial tissue under controlled conditions, in vitro studies were performed. Therein, well-characterized test systems based on cell cultures and described in the literature were employed. For feed additives, epithelial cells from the respective organ in question, e.g. in the present case IPEC-J2 cells from the porcine intestine, were preferred. The used epithelial cells from the porcine intestine offer the advantage of being non-transformed cells still having all the important properties of normal intestinal cells and large physiological similarities such as the formation of viable tight junction proteins, which are above all essential for the intestinal barrier, as well as the expression of characteristic enzymes and transport systems (e.g. P-glycoprotein, cytochrome P450 3A4, vit. B 12 transporters etc.).
For the in vitro examinations of a Glycyrrhiza dry extract, the latter was extracted once again, thus producing a secondary Glycyrrhiza extract. The secondary Glycyrrhiza extract was prepared in that 1 g of the Glycyrrhiza dry extract and 9 ml 70% ethanol was each weighed in, mixed, and shaken at 700 rpm for one hour at room temperature. After this, the solution was centrifuged, and the liquid supernatant was sterile filtered using a 0.2 μm filter and further diluted with IPEC-J2 medium. The secondary Glycyrrhiza extract was tested in vitro in the following concentrations: 250 μg, 500 μg and 1,000 μg Glycyrrhiza dry extract per ml medium in the test formulation, in the following also referred to as 250, 500 and 1,000 μg/ml secondary Glycyrrhiza extract.
The TEER technique described by Geens and Niewold (Cytotechnology, 2011, 63, 415 et seq.) was used in an adapted form. In this in vitro model, intestinal porcine epithelial cells (IPEC-J2, DSMZ No.: ACC 701, Passage 1-15) are cultivated in an insert on a permeable polyester membrane (1.12 cm^2 surface area, 0.4 μm pore size, 12 mm membrane diameter) and differentiated in the incubator for a period of 8 days at 39° C. and 5% CO2. Per insert, 1×10^∧5 cells in 0.5 ml medium are applied to the respective membrane. During said differentiation period, the used medium was aspirated every other day and replaced with fresh medium. The insert was fixed in a 12-well cell culture plate, and the cells were supplied with 1.5 ml medium from below (basolateral compartment) and with 0.5 ml medium from above (apical compartment). […]
Differentiated cells form a cell barrier, being strongly interconnected by tight junction proteins. […] The intactness of the cell barrier is measured by means of a volt-ohmmeter: The electrical resistance between the two compartments is referred to as TEER (transepithelial electrical resistance) value and represented in kOhm×cm^2. […]

Compound	TEER value after addition of toxin (negative control)	also measured
CCC(=O)CCCCC[C@@H]1NC(=O)[C@H]2CCCCN2C(=O)[C@H]([C@@H](C)CC)NC(=O)[C@H](Cc2cn(OC)c3ccccc23)NC1=O [apicidin]	lowered	–
CC[C@H](C)[C@H]1C(=O)O[C@H](C(C)C)C(=O)N(C)[C@@H]([C@@H](C)CC)C(=O)O[C@H](C(C)C)C(=O)N(C)[C@@H]([C@@H](C)CC)C(=O)O[C@H](C(C)C)C(=O)N1C [enniatin A]	–	TEER mean value (toxin) (enniatin A 5 μM alone (negative control), after 24 hours): 3.928 kOhm×cm^2
CC1(C)[C@@H](O[C@H]2O[C@H](C(=O)O)[C@@H](O)[C@H](O)[C@H]2O[C@@H]2O[C@H](C(=O)O)[C@@H](O)[C@H](O)[C@H]2O)CC[C@]2(C)[C@H]3C(=O)C=C4[C@@H]5C[C@@](C)(C(=O)O)CC[C@]5(C)CC[C@@]4(C)[C@]3(C)CC[C@@H]12 [glycyrrhizic acid]	–	Effect in the TEER test against enniatins A, A1, B, B1, beauvericin and apicidin relative to the negative controls (70 μg/ml (corresponding to 1.000 μg/ml secondary Glycyrrhiza extract)): no positive effect
enniatins	lowered	–
